These results are taken from ChEMBL document CHEMBL4808244, “Design, synthesis and anti-fibrosis evaluation of imidazo[1,2-a]pyridine derivatives as potent ATX inhibitors” (Bioorg Med Chem, 2021).

Active and inactive are the calls of the source. The calls are words filed in the database; no cut-off is given here. Where only a bound is given, the exact number is not on record here.

The first assay has as its system Mus musculus. Briefly: Antifibrotic activity in C57BL/6J mouse model of bleomycin-induced idiopathic pulmonary fibrosis assessed as inhibition of changes in lung textures at 30-60 mg/kg, po dosed for 31 consecutive days followed by tracheal administration of bleomycin by masson's staining based histopathological analysis. In kind it is functional, organism-based. The conditions noted are these: time 31.0 day.
With `CCc1nc2c(C)cc(-c3ccc(CN4CCC(O)CC4)cc3)cn2c1NC(=O)NCc1ccc(F)cc1`, the inhibition entry is “Active”.
Same read-out and setting: with `CCc1nc2c(C)cc(N3CCN(CC(=O)N4CC(O)C4)CC3)cn2c1N(C)c1nc(-c2ccc(F)cc2)c(C#N)s1` the entry was “Active”.

Another assay relates to Mus musculus. Briefly: Antifibrotic activity in C57BL/6 mouse model of bleomycin-induced idiopathic pulmonary fibrosis assessed as inhibition of collagen deposition at 30-60 mg/kg, po dosed for 31 consecutive days followed by tracheal administration of bleomycin by masson's staining based histopathological analysis. The format is functional, organism-based. As to conditions: time 31.0 day.
For the compound `CCc1nc2c(C)cc(-c3ccc(CN4CCC(O)CC4)cc3)cn2c1NC(=O)NCc1ccc(F)cc1`, the inhibition entry is “Active”.
Still for that read-out and setting: the value for `CCc1nc2c(C)cc(N3CCN(CC(=O)N4CC(O)C4)CC3)cn2c1N(C)c1nc(-c2ccc(F)cc2)c(C#N)s1` was “Active”.

In the next assay the test system is Mus musculus. Put plainly: Antifibrotic activity in C57BL/6 mouse model of bleomycin-induced idiopathic pulmonary fibrosis assessed as survival rate at 30-60 mg/kg, po dosed for 31 consecutive days followed by tracheal administration of bleomycin relative to control. As to conditions: C57BL/6, po, 744 h, time 31 day. The format is functional.
Consider `CCc1nc2c(C)cc(-c3ccc(CN4CCC(O)CC4)cc3)cn2c1NC(=O)NCc1ccc(F)cc1`, for which the survival at 60 mg/kg stood at 100%.

The next assay deals with Autotaxin (Homo sapiens, UniProt Q13822). Briefly: Inhibition of human ATX using FS-3 as substrate preincubated for 45 mins followed by substrate addition and measured every 1 min for 30 mins by fluorescence microplate reader assay.
Conditions: not given
Take `CCc1nc2c(C)cc(-c3ccc(C(=O)N4CCN(C)CC4)cc3)cn2c1NC(=O)NCc1ccc(OC)c(Cl)c1`: the IC50 is 0.213 µM.
On the same count and under the same terms, with `CCc1nc2c(C)cc(-c3ccc(C(=O)N4CCN(CC)CC4)cc3)cn2c1NC(=O)NCc1ccc(F)cc1` the figure was more than 1 µM; with `CCc1nc2c(C)cc(-c3ccc(CN4CCC(O)CC4)cc3)cn2c1NC(=O)NCc1ccc(Cl)cc1`, 0.237 µM; with `CCc1nc2c(C)cc(-c3ccc(C(=O)N4CCCCC4)cc3)cn2c1NC(=O)NCc1ccc(F)cc1`, 0.626 µM.
Compound `CCc1nc2c(C)cc(-c3ccc(CN4CCC[C@H]4CO)cc3)cn2c1NC(=O)NCc1ccc(OC)c(Cl)c1` returned an IC50 of 0.497 µM.
`CCc1nc2c(C)cc(-c3ccc(CN4CCN(C)CC4)cc3)cn2c1NC(=O)NCc1ccc(F)cc1` gave a half-inhibitory concentration (IC50) of 0.451 µM.
Still for that read-out and setting: with `CCc1nc2c(C)cc(-c3ccc(CN4CCOCC4)cc3)cn2c1NC(=O)NCc1ccc(Cl)cc1` the figure was 0.283 µM.
On the same count and under the same terms, with `COc1ccc(CNC(=O)Nc2c(C)nc3c(C)cc(-c4ccc(CN5CCC(O)CC5)cc4)cn23)cc1Cl` the figure was 0.011 µM; with `COc1ccc(CNC(=O)Nc2c(C)nc3c(C)cc(-c4ccc(CN5CCN(CCO)CC5)cc4)cn23)cc1Cl`, 0.0791 µM.
Still for that read-out and setting: the value for `CCc1nc2c(C)cc(-c3ccc(C(=O)N4CCN(C)CC4)cc3)cn2c1NC(=O)NCc1ccc(F)cc1` was 0.257 µM; that for `CCc1nc2c(C)cc(-c3ccc(CN4CCC(O)CC4)cc3)cn2c1NC(=O)NCc1ccc(F)cc1` was 0.00172 µM; that for `CCc1nc2c(C)cc(-c3ccc(CN4CCOCC4)cc3)cn2c1NC(=O)NCc1ccc(OC)c(Cl)c1` was 0.0717 µM.
Turning to `CCc1nc2c(C)cc(-c3ccc(CN4CCCC4)cc3)cn2c1NC(=O)NCc1ccc(Cl)cc1`, the half-maximal inhibitory concentration (IC50) is 1.07 µM.
Still for that read-out and setting: with `CCc1nc2c(C)cc(-c3ccc(CN4CCN(CC)CC4)cc3)cn2c1NC(=O)NCc1ccc(Cl)cc1` the figure was 0.688 µM.
The same measure, in the same setting: the value for `CCc1nc2c(C)cc(-c3ccc(CN4CCCCC4)cc3)cn2c1NC(=O)NCc1ccc(Cl)cc1` was 0.647 µM; that for `CCc1nc2c(C)cc(-c3ccc(CN4CCN(CCO)CC4)cc3)cn2c1NC(=O)NCc1ccc(OC)c(Cl)c1` was 0.00543 µM; that for `CCc1nc2c(C)cc(-c3ccc(C(=O)N4CCC(O)CC4)cc3)cn2c1NC(=O)NCc1ccc(OC)c(Cl)c1` was 0.0117 µM.
`CCc1nc2c(C)cc(-c3ccc(CN4CCC(O)CC4)cc3)cn2c1NC(=O)NCc1ccc(OC)c(Cl)c1`: half-maximal inhibition (IC50) was put at 0.00741 µM.
In turn, `CCc1nc2c(C)cc(-c3ccc(C(=O)N4CCC(O)CC4)cc3)cn2c1NC(=O)NCc1ccc(F)cc1` yielded a 50% inhibitory concentration (IC50) of 0.00917 µM.
Same read-out and setting: the value for `CCc1nc2c(C)cc(-c3ccc(CN4CCSCC4)cc3)cn2c1NC(=O)NCc1ccc(OC)c(Cl)c1` was more than 1 µM.

As usually defined, the IC50 is the concentration needed to halve the response being measured. Low values mean greater potency, high ones weaker potency.
